Results: publication PMC11219735, “Fluorescence lifetime multiplexing with fluorogen activating protein FAST variants” (Communications Biology, 2024)

Columns and labels:
Assay in all cases: spectrofluorometric titration of purified protein
Type in all cases: binding
[1] = target: T1, FAST-P68K (Fluorescence-Activating and Absorption-Shifting Tag) (Halorhodospira halophila, UniProt P16113, P68K/C69G/Y94W/T95M/F96I/D97P/Y98T/Q99S/M100R)
T1 construct: gene pyp

[2] = target: T2, FAST-R52K (Fluorescence-Activating and Absorption-Shifting Tag) (Halorhodospira halophila, UniProt P16113, R52K/C69G/Y94W/T95M/F96I/D97P/Y98T/Q99S/M100R)
T2 construct: gene pyp
T2 sequence (P16113 whole entry R52K/C69G/Y94W/T95M/F96I/D97P/Y98T/Q99S/M100R): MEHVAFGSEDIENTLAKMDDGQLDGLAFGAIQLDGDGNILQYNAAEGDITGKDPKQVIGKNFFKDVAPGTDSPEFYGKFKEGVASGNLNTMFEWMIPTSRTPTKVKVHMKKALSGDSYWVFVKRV

[3] = target: T3, FAST-F62L (Fluorescence-Activating and Absorption-Shifting Tag) (Halorhodospira halophila, UniProt P16113, F62L/C69G/Y94W/T95M/F96I/D97P/Y98T/Q99S/M100R)
T3 construct: gene pyp
T3 sequence (P16113 whole entry F62L/C69G/Y94W/T95M/F96I/D97P/Y98T/Q99S/M100R): as the sequence (P16113 whole entry R52K/C69G/Y94W/T95M/F96I/D97P/Y98T/Q99S/M100R) above, with K52R, F62L counted along it

[4] = target: T4, FAST-P68T (Fluorescence-Activating and Absorption-Shifting Tag) (Halorhodospira halophila, UniProt P16113, P68T/C69G/Y94W/T95M/F96I/D97P/Y98T/Q99S/M100R)
T4 construct: gene pyp
T4 sequence (P16113 whole entry P68T/C69G/Y94W/T95M/F96I/D97P/Y98T/Q99S/M100R): as the sequence (P16113 whole entry R52K/C69G/Y94W/T95M/F96I/D97P/Y98T/Q99S/M100R) above, with K52R, P68T counted along it

T1 sequence (P16113 whole entry P68K/C69G/Y94W/T95M/F96I/D97P/Y98T/Q99S/M100R): as the sequence (P16113 whole entry R52K/C69G/Y94W/T95M/F96I/D97P/Y98T/Q99S/M100R) above, with K52R, P68K counted along it

COc1cc(/C=C2\N=C(C(F)(F)F)N(C)C2=O)c(OC)cc1O [25DOM-HBI-2T, (Z)-5-(4-hydroxy-2,5-dimethoxybenzylidene)-3-methyl-2-(trifluoromethyl)-3,5-dihydro-4H-imidazol-4-one] showed a Kd [1] of 340 nM and a Kd [2] of 440 nM.

COc1cc(/C=C2\SC(=S)NC2=O)c(OC)cc1O [HBR-DOM2, (Z)-5-(4-hydroxy-2,5-dimethoxybenzylidene)-2-thioxothiazolidin-4-ones] showed a Kd [1] of 30 nM, a Kd [2] of 35 nM and a Kd [3] of 36 nM.

With Cc1cc(/C=C2\SC(=S)NC2=O)c(C)cc1O [HBR-2,5-DM] the Kd [1] was 84 nM, the Kd [2] was 46 nM and the Kd [4] was 90 nM.
